Test results: publication PMC12752627, “Discovery of a Potent and Selective TEAD Degrader with Durable Degradation Activity” (Advanced Science, 2025)

Tests used:
CRBN-DDB1 = CRBN-DDB1 (Homo sapiens, UniProt Q96SW2); test: CRBN binding assay, biochemical (HTRF); details: recombinant CRBN-DDB1, 1 h, read-out: Biochemical CRBN Binary Binding IC50 (nM ± SD)
Description: Next, 400 nL of compound solution (initial concentration 10 µM, followed by a three‐fold gradient dilution) was dispensed into the wells using the positive‐pressure‐based I‐DOT dispenser. After 1 h of incubation at room temperature, the HTRF signal was measured using an Envision plate reader (Revvity). Finally, the data were analyzed using non‐linear regression curves in GraphPad Prism 9.5 software.

CRBN = molecular target: T1, CRBN (Homo sapiens, UniProt Q96SW2); test: Intracellular CRBN binding in NanoLuc-CRBN-overexpressing HEK293T cells; assay type: cell-based; details: read-out: Cellular CRBN Binding IC50 (nM ± SD)
T1 construct: expressed in transfected cells; host or cells: HEK293T
T1 sequence (Q96SW2 whole entry): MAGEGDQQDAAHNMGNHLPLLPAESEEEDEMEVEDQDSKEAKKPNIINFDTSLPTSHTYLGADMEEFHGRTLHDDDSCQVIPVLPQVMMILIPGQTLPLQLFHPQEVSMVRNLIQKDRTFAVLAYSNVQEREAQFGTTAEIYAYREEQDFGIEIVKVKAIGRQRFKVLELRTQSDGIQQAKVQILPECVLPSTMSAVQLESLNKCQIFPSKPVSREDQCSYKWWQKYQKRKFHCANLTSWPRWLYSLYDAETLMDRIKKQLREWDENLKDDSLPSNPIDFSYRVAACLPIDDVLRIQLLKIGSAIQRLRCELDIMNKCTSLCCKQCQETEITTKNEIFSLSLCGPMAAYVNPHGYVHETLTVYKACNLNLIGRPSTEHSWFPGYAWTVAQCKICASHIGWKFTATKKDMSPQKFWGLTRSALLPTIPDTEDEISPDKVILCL
Description: NanoLuc‐CRBN‐overexpressing HEK293T were seeded in 96‐well plates at a density of 2000 per well. The following day, compounds was added to the plate starting from 10 µM for a 3‐fold gradient dilution and incubated for 2 h. […] Finally, the signal was measured using an Envision plate reader (Revvity) and the data were analyzed using the GraphPad Prism 9.5 software.

TEAD1 [1] = molecular target: T2, TEAD1 (Homo sapiens, UniProt P28347+Q96SW2); test: Immunoblot of TEAD1 degradation in TEAD1-mNeonGreen fusion NCI-H1299 cells; assay type: cell-based; details: 10 nM, 6 h, TEAD1-mNeonGreen NCI-H1299 cells
T2 construct: endogenous in cells; host or cells: NCI-H1299 (TEAD1-mNeonGreen knock-in)
T2 sequence (P28347 whole entry, the tested form may be a part): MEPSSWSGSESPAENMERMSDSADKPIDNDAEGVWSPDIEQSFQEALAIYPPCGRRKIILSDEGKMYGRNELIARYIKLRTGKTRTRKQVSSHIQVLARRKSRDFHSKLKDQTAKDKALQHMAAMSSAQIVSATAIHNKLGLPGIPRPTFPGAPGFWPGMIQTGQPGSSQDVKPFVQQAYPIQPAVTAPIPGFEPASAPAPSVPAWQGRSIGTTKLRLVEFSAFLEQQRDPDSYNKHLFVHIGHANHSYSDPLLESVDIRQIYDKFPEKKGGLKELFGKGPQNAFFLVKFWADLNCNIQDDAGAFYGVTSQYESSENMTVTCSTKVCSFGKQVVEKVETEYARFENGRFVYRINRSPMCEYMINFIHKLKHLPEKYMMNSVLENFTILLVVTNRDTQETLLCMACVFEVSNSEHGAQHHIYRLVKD
T2 sequence (Q96SW2 whole entry, the tested form may be a part): as the sequence (Q96SW2 whole entry) above
T2 sequence (Q16531 2-1140 partner limits assumed): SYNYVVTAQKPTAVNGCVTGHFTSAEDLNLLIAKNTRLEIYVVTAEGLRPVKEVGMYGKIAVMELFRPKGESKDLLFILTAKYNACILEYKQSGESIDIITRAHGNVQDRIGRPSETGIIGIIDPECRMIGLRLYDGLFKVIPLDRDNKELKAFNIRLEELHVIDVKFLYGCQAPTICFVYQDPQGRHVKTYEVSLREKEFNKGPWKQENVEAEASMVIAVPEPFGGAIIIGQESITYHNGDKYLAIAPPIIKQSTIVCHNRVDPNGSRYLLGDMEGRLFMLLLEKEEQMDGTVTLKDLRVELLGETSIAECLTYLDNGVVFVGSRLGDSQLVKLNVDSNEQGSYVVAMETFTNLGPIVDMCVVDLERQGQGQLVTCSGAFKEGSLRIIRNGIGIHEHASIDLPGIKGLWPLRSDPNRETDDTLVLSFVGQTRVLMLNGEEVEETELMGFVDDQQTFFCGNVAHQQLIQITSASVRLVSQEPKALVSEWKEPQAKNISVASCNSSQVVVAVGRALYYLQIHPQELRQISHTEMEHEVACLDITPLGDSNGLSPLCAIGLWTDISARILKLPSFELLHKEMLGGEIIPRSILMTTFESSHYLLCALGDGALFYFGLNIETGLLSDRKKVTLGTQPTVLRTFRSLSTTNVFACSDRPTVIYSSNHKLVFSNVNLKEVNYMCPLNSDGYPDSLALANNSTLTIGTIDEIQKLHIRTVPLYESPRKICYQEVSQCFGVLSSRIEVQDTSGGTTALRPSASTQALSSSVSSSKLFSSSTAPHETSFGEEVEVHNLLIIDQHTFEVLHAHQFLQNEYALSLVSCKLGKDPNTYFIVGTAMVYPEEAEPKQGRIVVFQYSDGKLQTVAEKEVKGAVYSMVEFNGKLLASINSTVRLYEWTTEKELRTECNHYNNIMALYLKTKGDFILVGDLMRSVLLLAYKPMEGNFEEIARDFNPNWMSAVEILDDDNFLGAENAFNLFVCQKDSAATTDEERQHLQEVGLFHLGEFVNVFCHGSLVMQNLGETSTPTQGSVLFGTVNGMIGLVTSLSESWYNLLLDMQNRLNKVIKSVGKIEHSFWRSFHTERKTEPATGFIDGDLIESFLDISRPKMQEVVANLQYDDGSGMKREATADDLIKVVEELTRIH
Description: (§1) Immunoblotting was carried out as previously described.^[ [29] ^] Cells were seeded in 6‐well plates (Yeasen, #84011ES50) at a density of 1 million cells per well. The following day, cells were treated with compounds at the required concentrations, with the DMSO concentration kept below 0.4‰ to prevent toxic effects on the cells. The collected cell pellets were washed three times with PBS (Meilunbio, #MA0015) and resuspended in 120 µL of RIPA lysis buffer (Meilunbio, #MA0151) containing 1% protease inhibitor (Meilunbio, #MB2678‐2). The cells were then sonicated on ice and centrifuged at 12 000 rpm for 15 min at 4 °C to remove cellular debris. Protein concentrations were determined using the BCA Protein Quantification Kit (Meilunbio, #MA0082‐1). The protein samples were normalized, boiled at 99 °C for 10 min, and then subjected to electrophoresis on a 10% SDS‐PAGE gel. The separated protein bands were transferred to nitrocellulose membranes, blocked with TBST containing 5% BSA, and incubated with the indicated primary antibodies. Finally, the blots were imaged using an Amersham Typhoon NIR imager.

TEAD1 [2] = molecular target: TEAD1 (Homo sapiens, UniProt P28347); test: Immunoblot in wild-type / CRBN-knockout HEK293T cells and rescue experiment; assay type: cell-based; design: endogenous in cells; host or cells: HEK293T wild-type and CRBN-knockout; details: HEK293T cells, 1 h pretreatment
Chain of TEAD1 (Homo sapiens, UniProt P28347) (P28347 whole entry): as the sequence (P28347 whole entry, the tested form may be a part) above
Description: as §1

KLE cells = test: Cell viability assay (CTG, 72 h) KLE; assay type: cell-based; details: 3-day compound treatment
Description: (§2) Cells were seeded at a density of 1000 cells per well in 96‐well flat‐bottomed cell culture plates and cultured overnight at 37 °C with 5% CO2 to allow for cell attachment. The following day, different concentrations of compounds were added using an I‐DOT dispenser. After 72 h, 25 µL of CellTiter‐Meiluncell Luminescent Cell Viability Reagent (Meilunbio, #PWL111‐2) was added and incubated for 15 min at room temperature. Luminescence signals were then measured using an Envision plate reader (Revvity). Data were analyzed using GraphPad Prism 9.5 software.^[ [30] ^]

A172 cells = test: Cell viability assay (CTG, 72 h) A172; assay type: cell-based; details: 3-day compound treatment
Description: as §2

867 cancer cell lines = test: PRISM assay (barcoded cell line screening, 5 days); assay type: cell-based;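 further: top test concentration 10 mM in eight-point dilution series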
Description: The principle of the PRISM assay has been described elsewhere and was conducted as previously outlined by the PRISM team at the Broad Institute.^[ [14], [31] ^] In PRISM (MTS027) experiments, KG‐FP‐003 was tested across 867 different cancer cell lines. Cells were treated with eight concentration gradients, ranging from 4.6 nM to […], in triplicate dilutions over a period of five days. Each plate was treated with 20 µM bortezomib as a positive control and DMSO as a negative control. Three replicate experiments were performed for each compound. The resulting data were analyzed using GraphPad PRISM 9.5.

ES2 cells = test: Cell viability assay (CTG, 72 h) ES2; assay type: cell-based; details: 3-day compound treatment
Description: as §2

HOS cells = test: Cell viability assay (CTG, 72 h) HOS; assay type: cell-based; details: 3-day compound treatment
Description: as §2

Chain of CRBN-DDB1 (Q96SW2 whole entry): as the sequence (Q96SW2 whole entry) above

Row | SMILES | IC50 (CRBN-DDB1) | IC50 (CRBN) | Rescue: effect of pretreatment on KG-FP-003-mediated TEAD1 degradation (TEAD1 [2]) | also measured
1 | CNC(=O)c1cc2c(c(F)c1-c1c(Cl)c(F)cc3c1C[C@@](CNC(=O)CCCCC(=O)Nc1ccc4c(c1)C(=O)N(C1CCC(=O)NC1=O)C4=O)(c1ccccc1)O3)[C@@H](O)[C@@H](C)C2 (stereo partly drawn) [KG-FP-008] | 126 ± 47 nM | 426 ± 176 nM | – | –
2 | CNC(=O)c1cc2c(c(F)c1-c1c(Cl)c(F)cc3c1C[C@@](CN[C@H]1CC[C@H](C(=O)N4CCC(CC5CCN(C(=O)COc6ccc7c(c6)C(=O)N(C6CCC(=O)NC6=O)C7=O)CC5)CC4)CC1)(c1ccccc1)O3)[C@@H](O)[C@@H](C)C2 (stereo partly drawn) [KG-FP-009] | 152 ± 12 nM | 1380 ± 794 nM | – | Target degradation by immunoblot (TEAD1 [1]): significant target degradation
3 | CNC(=O)c1cc2c(c(F)c1-c1c(Cl)c(F)cc3c1C[C@@](CN[C@H]1CC[C@H](C(=O)NCCCCC(=O)Nc4ccc(C)c(N5CCC(=O)NC5=O)c4)CC1)(c1ccccc1)O3)[C@@H](O)[C@@H](C)C2 [KG-FP-010] | 474 ± 14 nM | 1700 ± 384 nM | – | –
4 | Nc1cccc2c1CN(C1CCC(=O)NC1=O)C2=O (stereo not drawn) [Lenalidomide, lenalidomide] | – | – | effectively blocked | –
5 | NS(=O)(=O)OC[C@@H]1C[C@@H](n2ccc3c(N[C@H]4CCc5ccccc54)ncnc32)C[C@@H]1O [MLN4924] | – | – | effectively blocked | –
6 | C=C(F)C(=O)N1C[C@@H](Nc2ncccn2)[C@H](OCc2ccc(C(F)(F)F)cc2)C1 [MYF-03-176, reference compound] | – | – | – | IC50 (KLE cells): 1410 ± 479 nM; IC50 (A172 cells): > 3000 nM; PRISM AUC (867 cancer cell lines; Cell line: A172, 5 days): 0.59; PRISM AUC (867 cancer cell lines; Cell line: ES2, 5 days): 1.00; PRISM AUC (867 cancer cell lines; Cell line: HOS, 5 days): 0.90; PRISM AUC (867 cancer cell lines; Cell line: KLE, 5 days): 1.00; IC50 (ES2 cells): > 2000 nM; IC50 (HOS cells): 922 ± 404 nM
7 | CC(C)C[C@H](NC(=O)[C@H](Cc1ccccc1)NC(=O)c1cnccn1)B(O)O [bortezomib] | – | – | effectively blocked | –
